Reference: publication PMC3643963, “Enhancement of Proteolytic Activity of a Thermostable Papain-Like Protease by Structure-Based Rational Design” (PLoS ONE, 2013)

Tests used:
Experiment in all cases: residual activity, pNA release at […] nm
Assay type in all cases: biochemical
Conditions in all cases: read-out: IC50 against E-64
Ervatamin-C (Erv-C) [1] = target: Ervatamin-C (Erv-C) (Tabernaemontana divaricata, UniProt A8DS38, A200Y/S165T)
Ervatamin-C (Erv-C) [2] = target: Ervatamin-C (Erv-C) (Tabernaemontana divaricata, UniProt A8DS38, A200Y)
Ervatamin-C (Erv-C) [3] = target: Ervatamin-C (Erv-C) (Tabernaemontana divaricata, UniProt A8DS38)
Ervatamin-C (Erv-C) (Tabernaemontana divaricata, UniProt A8DS38), sequence (A8DS38 134-341): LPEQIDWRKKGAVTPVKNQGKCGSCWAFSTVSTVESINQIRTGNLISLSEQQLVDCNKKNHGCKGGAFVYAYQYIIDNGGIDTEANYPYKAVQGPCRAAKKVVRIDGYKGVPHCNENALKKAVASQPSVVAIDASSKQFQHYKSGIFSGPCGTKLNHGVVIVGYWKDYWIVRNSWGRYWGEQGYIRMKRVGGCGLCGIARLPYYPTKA

Ervatamin-C (Erv-C) (Tabernaemontana divaricata, UniProt A8DS38, A200Y), sequence (A8DS38 134-341 A200Y): as the sequence (A8DS38 134-341) above, with A67Y counted along it
Ervatamin-C (Erv-C) (Tabernaemontana divaricata, UniProt A8DS38, A200Y/S165T), sequence (A8DS38 134-341 S165T/A200Y): as the sequence (A8DS38 134-341) above, with S32T, A67Y counted along it

Compound `CC(C)C[C@H](NC(=O)[C@H]1O[C@@H]1C(=O)O)C(=O)NCCCCN=C(N)N` [E-64] has an IC50 (Ervatamin-C (Erv-C) [1]) of 171 nM, an IC50 (Ervatamin-C (Erv-C) [2]) of 251 nM and an IC50 (Ervatamin-C (Erv-C) [3]) of 349 nM.
